Where two headings read alike, the source gives them in different places. *1 amine or outer side, *2 acyl side, *3 side chain or, on linkers, in order; H or OH if unused. Where a SMILES comes first, the peptide text is derived from it. Bridges are numbered along the chain shown (N, C = ends). [ ]: non-standard residue; d: D form. hPhe(3,5-F2-4-CF3) = N[C@@H](CCc1cc(F)c(C(F)(F)F)c(F)c1)C(=O)O; hPhe(3-Cl-4-CF3) = N[C@@H](CCc1ccc(C(F)(F)F)c(Cl)c1)C(=O)O; NPrPhe(4-CF3) = CCCN[C@@H](Cc1ccc(C(F)(F)F)cc1)C(=O)O; NMeGly(cPent) = CN[C@H](C(=O)O)C1CCCC1; X8 = C[C@@](N[*:1])(C(=O)[*:2])C1CC1; NMeD = CN[C@@H](CC(=O)O)C(=O)O; NMeL = CN[C@@H](CC(C)C)C(=O)O; Ac5c = NC1(C(=O)O)CCCC1; NEtG = CCNCC(=O)O; Sar = CNCC(=O)O
Key:
[1] = target: GDP-bound HRAS wild-type protein (Homo sapiens, UniProt P01112); experiment: Binding to HRAS by surface plasmon resonance (SPR), Single Cycle Kinetics; conditions: SPR; for HRAS/KRAS (ratio of KD value with respect to HRAS to KD value with respect to KRAS) / HRAS/KRAS (ratio of KD value for HRAS to KD value for KRAS): GDP-bound HRAS wild-type protein vs GDP-bound KRAS wild-type protein
GDP-bound HRAS wild-type protein, sequence (P01112 whole entry): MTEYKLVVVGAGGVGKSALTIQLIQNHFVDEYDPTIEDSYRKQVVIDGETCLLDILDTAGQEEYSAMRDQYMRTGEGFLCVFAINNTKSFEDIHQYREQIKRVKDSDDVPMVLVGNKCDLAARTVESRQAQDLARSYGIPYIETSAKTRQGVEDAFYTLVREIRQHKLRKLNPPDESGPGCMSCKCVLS

[2] = target: GDP-bound KRAS wild-type protein (Homo sapiens, UniProt P01116); experiment: Binding to KRAS by surface plasmon resonance (SPR), Single Cycle Kinetics; conditions: GDP-bound KRAS wild-type protein, read-out: KRAS KD
GDP-bound KRAS wild-type protein, sequence (P01116 whole entry): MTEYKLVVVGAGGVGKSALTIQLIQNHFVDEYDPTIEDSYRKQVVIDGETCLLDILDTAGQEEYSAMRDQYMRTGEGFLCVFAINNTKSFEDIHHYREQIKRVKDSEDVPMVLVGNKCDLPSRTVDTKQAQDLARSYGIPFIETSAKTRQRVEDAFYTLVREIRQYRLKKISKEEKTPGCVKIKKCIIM

[3] = target: GDP-bound NRAS wild-type protein (Homo sapiens, UniProt P01111); experiment: Binding to NRAS by surface plasmon resonance (SPR), Single Cycle Kinetics; conditions: SPR; for NRAS/KRAS (ratio of KD value with respect to NRAS to KD value with respect to KRAS) / NRAS/KRAS (ratio of KD value for NRAS to KD value for KRAS): GDP-bound NRAS wild-type protein vs GDP-bound KRAS wild-type protein
GDP-bound NRAS wild-type protein, sequence (P01111 whole entry): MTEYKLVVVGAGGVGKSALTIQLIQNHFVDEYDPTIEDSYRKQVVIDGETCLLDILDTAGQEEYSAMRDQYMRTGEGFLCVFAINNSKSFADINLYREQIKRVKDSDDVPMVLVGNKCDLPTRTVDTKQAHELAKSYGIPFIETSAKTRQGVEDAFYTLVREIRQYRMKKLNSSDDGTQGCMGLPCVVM

[4] = SPR Single Cycle Kinetics, 1:1 binding model
[5] = SPR, Single Cycle Kinetics, 1:1 binding model

Structure (SMILES)	HRAS/KRAS (ratio of KD value with respect to HRAS to KD value with respect to KRAS) [1]	Kd [2, 4] [nM]	NRAS/KRAS (ratio of KD value with respect to NRAS to KD value with respect to KRAS) [3]	HRAS/KRAS (ratio of KD value for HRAS to KD value for KRAS) ([1]; KD ratio class)	Kd [2, 5] [nM]	NRAS/KRAS (ratio of KD value for NRAS to KD value for KRAS) ([3]; KD ratio class)	other results
CCCN1C(=O)CN(C)C(=O)CN(C)C(=O)[C@H]([C@@H](C)CC)NC(=O)[C@H](CC(C)C)N(C)C(=O)C[C@@H](C(=O)N(C)C)N(C)C(=O)[C@H](C2CCCC2)N(C)C(=O)[C@](C)(C2CC2)NC(=O)[C@@H]2CCCN2C(=O)[C@H](CCc2cc(F)c(C(F)(F)F)c(F)c2)NC(=O)CN(C)C(=O)[C@@H]1Cc1ccc(C(F)(F)F)cc1 [PP0734] ([NMeL]I[Sar][Sar][NPrPhe(4-CF3)][Sar][hPhe(3,5-F2-4-CF3)]P[X8][NMeGly(cPent)][NMeD]-NMe2; lactam N-11)	C (A compound having a KD ratio of 0.1 or more and less than 3 is denoted as C)	0.38	B (a compound having 3 or more and less than 10 is denoted as B)				
CCO[C@@H]1C[C@H]2C(=O)NC3(CCC3)C(=O)N(C)[C@@H](C3CCCC3)C(=O)N(C)[C@H](C(=O)N(C)CC)CC(=O)N(C)[C@@H](C)C(=O)N[C@@H]([C@@H](C)CC)C(=O)N(C)CC(=O)N(C)[C@H]3C/C=C\CCN(C3=O)[C@@H](Cc3ccc(C(F)(F)F)cc3)C(=O)N(C)CC(=O)N[C@@H](CCc3cc(F)c(C(F)(F)F)c(F)c3)C(=O)N2C1 [PP1302, (2S,8S,12R,14S,20S,23S,27S,30S,36S,38Z)-20-cyclopentyl-8-[2-[3,5-difluoro-4-(trifluoromethyl)phenyl]ethyl]-12-ethoxy-N-ethyl-N,4,19,22,26,27,32,35-octamethyl-30-[(1S)-1-methylpropyl]-3,6,9,15,18,21,25,28,31,34,42-undecaoxo-2-[[4-(trifluoromethyl)phenyl]methyl]spiro[1,4,7,10,16,19,22,26,29,32,35-undecazatricyclo[34.5.1.0^10,14]dotetracont-38-ene-17,1′-cyclobutane]-23-carboxamide]				A (a compound having 10 or more and less than 20 is denoted as A)	0.057	A (a compound having 10 or more and less than 20 is denoted as A)	
CC[C@H](C)[C@@H]1NC(=O)[C@H](CC2CC2)N(C)C(=O)C[C@@H](C(=O)N(C)C)N(C)C(=O)[C@H](C2CCCC2)N(C)C(=O)C2(CCC2)NC(=O)[C@@H]2C[C@@H](C(F)(F)F)CN2C(=O)[C@H](CCc2cc(F)c(C(F)(F)F)c(F)c2)NC(=O)CN(C)C(=O)[C@H](Cc2ccc(C(F)(F)F)cc2)N2CC/C=C\C[C@@H](C2=O)N(C)C(=O)CN(C)C1=O [PP1498]				A (a compound having 10 or more and less than 20 is denoted as A)	0.069	A (a compound having 10 or more and less than 20 is denoted as A)	
CCCN1C(=O)CN(C)C(=O)CN(CC)C(=O)[C@H]([C@@H](C)CC)NC(=O)[C@H](CC(C)C)N(C)C(=O)C[C@@H](C(=O)N(C)C)NC(=O)[C@H](C2CCCC2)N(C)C(=O)C2(CCCC2)NC(=O)[C@@H]2CCCN2C(=O)[C@H](CCc2ccc(C(F)(F)F)c(Cl)c2)NC(=O)CN(C)C(=O)[C@@H]1Cc1ccc(C(F)(F)F)cc1 [PP0367] ([NMeL]I[NEtG][Sar][NPrPhe(4-CF3)][Sar][hPhe(3-Cl-4-CF3)]P[Ac5c][NMeGly(cPent)]D-NMe2; lactam N-11)		1.3					HRAS/KRAS (ratio of KD value for HRAS to KD value for KRAS) [1]: B (a compound having 3 or more and less than 10 is denoted as B); NRAS/KRAS (ratio of KD value for NRAS to KD value for KRAS) [3]: B (a compound having 3 or more and less than 10 is denoted as B)
C=CC[C@H]1C(=O)N[C@@H]([C@@H](C)CC)C(=O)N(C)CC(=O)N(C)[C@H]2CCCCN(C2=O)[C@@H](Cc2ccc(C(F)(F)F)cc2)C(=O)N(C)CC(=O)N[C@@H](CCc2cc(F)c(C(F)(F)F)c(F)c2)C(=O)N2C[C@H](OCC)C[C@H]2C(=O)NC2(CCC2)C(=O)N(C)[C@@H](C2CCCC2)C(=O)N(C)[C@H](C(=O)N(C)C)CC(=O)N1C [PP0695]	C (A compound having a KD ratio of 0.1 or more and less than 3 is denoted as C)	0.015	C (A compound having a KD ratio of 0.1 or more and less than 3 is denoted as C)				
CCO[C@@H]1C[C@H]2C(=O)NC3(CCC3)C(=O)N(C)[C@@H](C3CCCC3)C(=O)N(C)[C@H](C(=O)N(C)CC)CC(=O)N(C)[C@H]3CCC/C=C/c4ccc(cc4)C[C@@H](C(=O)N(C)CC(=O)N[C@@H](CCc4ccc(C(F)(F)F)c(OC)c4)C(=O)N2C1)N1CC/C=C\C[C@@H](C1=O)N(C)C(=O)CN(C)C(=O)[C@H]([C@@H](C)CC)NC3=O [PP1834]							HRAS/KRAS (KD ratio) ([1]; ratio of KD for GDP-bound HRAS wild-type protein to KD for KRAS): B (a compound having 3 or more and less than 10 is denoted as B); Kd ([2]; SPR, Single Cycle Kinetics): 0.065 nM; NRAS/KRAS (KD ratio) ([3]; ratio of KD for GDP-bound NRAS wild-type protein to KD for KRAS): A (a compound having 10 or more and less than 20 is denoted as A)

Reference: US20240158446A1, “CYCLIC COMPOUND HAVING SELECTIVE INHIBITORY ACTION ON KRAS OVER HRAS AND NRAS” (CHUGAI SEIYAKU KABUSHIKI KAISHA, priority 2021, published 2024)
